The results in this text go back to publication PMC11407758, “Integrated stress response (ISR) activation and apoptosis through HRI kinase by PG3 and other p53 pathway-restoring cancer therapeutics” (Oncotarget, 2024).

Assay [1] relates to SW480 cells carrying a p53-responsive luciferase reporter. The assay can be described thus: p53-responsive reporter assay. It is filed as cell-based, human. Particulars: 1.11 μM, 6 hour and 15 hour time points. A digest of the protocol: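 Mutant-p53 SW480 human colon cancer cells stably carrying a p53-responsive luciferase reporter, treated with compounds for 6 and 15 h. D-luciferin added to a final 100 μg/mL and luciferase activity imaged by IVIS to gauge restored p53-dependent transcription.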
For orientation: Reporter assays use an easily measured gene product as a stand-in for the process of interest.

Assay [2] relates to GCN2, PKR, eIF2α, ATF4, CHOP in HT29 cells. The assay can be described thus: Western blot, ISR kinases / eIF2α / ATF4 / CHOP. It is filed as cell-based, human. The settings on record: HT29, 15 h. As to the method: Figure 7 PG3 induces upregulation of ATF4 through ISR via HRI. (A) HT29 cells were treated with PG3, GSK2606414, TG and ONC201 respectively, or co-treatment with PG3/GSK2606414, PG3/TG, and PG3/ONC201 for 15 h. (B) MEF, MEF^PERK−/− and MEF^GCN2−/− cells were treated with PG3 and ONC201 for 16 hours. (C) HT29 cells were transfected with siControl, siPKR, siHRI and siPKR/siHRI for 24 hours and then treated with PG3 for 16 hours. (D) HCT116 p53^−/− cells were transfected with siControl and siHRI for 24 hours and then treated with PG3 for 16 hours. (E) HCT116 p53^−/− cells were treated with PG3 and ONC201 for indicated times. (F) PANC1-sgCtrl, -sgHRI and -sgPKR cell lines were treated with PG3 and imipridones (ONC201, ONC206 and ONC212) for 16 hours. Western blot was performed using indicated antibodies. (G) Proposed model of PG3-induced cell apoptosis through HRI/ATF4/PUMA axis. Abbreviation: L.E.: Long exposure.
After treatment, protein lysates were collected for Western blot analysis. A total of 15 μg of protein was used for SDS-PAGE. After primary and secondary antibody incubations, the signal was detected by a chemiluminescence detection kit, imaged by Syngene (Imgen Technologies). Antibodies for NAG-1 (GDF15) and P53 were from Santa Cruz Biotechnology; for caspase 8, cleaved caspase 8, caspase 9, caspase 3, cleavage PARP, eIF2α, p-eIF2α (Ser51), CHOP, ATF4, DR5, and PUMA were from Cell Signaling Technology. Noxa and p21 were from Calbiochem. Ran was from BD Biosciences.
Supplementary Figure 2: ROS and NO are not responsible for PG3-induced HRI activation. (A, B) cells were pre-treated
with ZnPP, L-NMMA, SA and NAC for 2 hours respectively, and then ONC201 or PG3 was added to the medium for 24 hour treatment.
Western blot was performed using indicated antibodies.
(1 picture or pasted object on this page, not shown here)
(In western blotting, separated proteins are transferred to a membrane and probed.)

Regarding `CCc1c(C)[nH]c(/C=C2\N=C(c3ccc[nH]3)C=C2OC)c1C` [PG3], in assay [1], the p53-responsive reporter activity entry is listed as “do not activate reporter activity”. The “phosphorylation of GCN2 and PKR” value in assay [2] was “does not increase phosphorylation”.
